Laboratory results published in patent EP2818467A1, “Multi-target drug compounds for the treatment of neurodegenerative disorders” (Universitat de Barcelona, priority 2013, dated 2014).
Entries after “also recorded” stand apart in the source; their conditions may differ.

Assays:
Assay type in all cases: in vivo
APP/PS1 mice [1] = assay: glial (GFAP) and Aβ double-immunofluorescence, astrocytes around Aβ plaques; conditions: 5 mg/kg i.p. once daily for 4 weeks, FIG 3
Protocol: (§1) Animals and treatment: The experiments were carried out on male APP/PS1 mice, which express the human mutated forms APPswe and PS1dE9, and wild-type (WT) littermates which were 5 month-old at the beginning of the study. In the present work, identification of transgenic mice was carried out as follows: genomic DNA was isolated from 1-cm tail clips and genotyped by polymerase chain reaction (PCR) technique using the PCR conditions proposed by Jackson Laboratory. Animals were maintained under standard animal housing conditions in a normal 12-h dark-light cycle with free access to food and water. The sample size for experimentation was computed using the Power and Precision software (Biostat, Englewood, NJ, USA), assuming a power of 95% and no missing data. Animal procedures were conducted according to ethical guidelines (European Community Council Directive 86/609/EEC) and approved by the local ethical committee (UB-IDIBELL). […]
(§2) Tissue Collection: At the end of the behavioral testing, the animals were sacrificed and their brains were removed. One brain hemisphere was dissected on ice, immediately frozen and stored at -80 °C until processing for protein or RNA quantification. […]
(§3) Glial and Aβ double-immunofluorescence: De-waxed sections were stained with a saturated solution of Sudan black B (Merck) for 30 min to block the autofluorescence of lipofuscin granules present in cell bodies, then rinsed in 70% ethanol and washed in distilled water. […] After washing, the sections were incubated with Alexa488 or Alexa546 (1:400, Molecular Probes) fluorescence secondary antibodies against the corresponding host species. […]
Densitometric quantification of glia around Aβ plaques: Astrocytic and microglial responses to Aβ deposition were evaluated by densitometric quantification of GFAP and Iba1 protein expression levels around Aβ plaques, respectively. […] Statistical analysis: Data were analyzed by two-way ANOVA with genotype and treatment or age as between factors, followed by Tukey's post hoc test when required. […]

APP/PS1 mice [2] = assay: Aβ immunohistochemistry, Aβ burden in neocortex; conditions: 5 mg/kg/day i.p. for 4 weeks, compared to vehicle-treated animals
Protocol: Animals and treatment: The experiments were carried out on male APP/PS1 mice, which express the human mutated forms APPswe and PS1dE9, and wild-type (WT) littermates which were 5 month-old at the beginning of the study. In the present work, identification of transgenic mice was carried out as follows: genomic DNA was isolated from 1-cm tail clips and genotyped by polymerase chain reaction (PCR) technique using the PCR conditions proposed by Jackson Laboratory. Animals were maintained under standard animal housing conditions in a normal 12-h dark-light cycle with free access to food and water. The sample size for experimentation was computed using the Power and Precision software (Biostat, Englewood, NJ, USA), assuming a power of 95% and no missing data. Animal procedures were conducted according to ethical guidelines (European Community Council Directive 86/609/EEC) and approved by the local ethical committee (UB-IDIBELL). The compounds (5 mg/kg) were dissolved in 1% DMSO and 99% saline, and were injected intraperitoneally (i.p.) in a volume of 10 mL/kg body weight. Animals were treated once daily for 4 weeks with (αS,7R,11R)-(Ia), (αS,7S,11S)-(Ia), (±)-(Ib), (±)-(Ic) or the corresponding vehicle (VEH) (wild-type, n = 6; APP/PS1, n = 6, each group). After 2 days of washing period, animals were subjected to behavioral evaluation.
Tissue Collection: At the end of the behavioral testing, the animals were sacrificed and their brains were removed. One brain hemisphere was dissected on ice, immediately frozen and stored at -80 °C until processing for protein or RNA quantification. The other brain hemisphere was fixed in 4% paraformaldehyde and processed for immunohistochemistry.
Aβ immunohistochemistry: Tissue samples were embedded in paraffin and coronal sections (4 µm) were cut with a microtome. […] No immunostaining was detected in these sections. […] The Aβ burden in neocortex was calculated as the percentage of the Aβ deposition area with respect to the total area in 9 representative pictures, corresponding to the main regions where Aβ deposition is observed in APP/PS1 mice. Sections from all the APP/PS1 animals were evaluated by using the Analysis tool of the software Adobe® Photoshop® CS4.
(§4) Densitometric quantification of glia around Aβ plaques: Astrocytic and microglial responses to Aβ deposition were evaluated by densitometric quantification of GFAP and Iba1 protein expression levels around Aβ plaques, respectively. […] Statistical analysis: Data were analyzed by two-way ANOVA with genotype and treatment or age as between factors, followed by Tukey's post hoc test when required. Aβ and glia quantifications were analyzed by one-way ANOVA followed by Tukey's post hoc test when required.

APP/PS1 mice [3] = assay: two-object recognition test (V-maze), cognitive performance; conditions: male APP/PS1 mice, 5 month-old, 5 mg/kg i.p. once daily for 4 weeks, FIG 1; for memory impairment in the two-object recognition test: tested after 2 days of washing period, 5 mg/kg
Protocol: as §1
Behavioral evaluation of cognitive performance: The two-object recognition test was performed. […] On the second day, mice were placed for 9 min in the maze, where two identical objects were situated at the end of the arms, and the time that the mice spent exploring each object was recorded. […] The time that the animals spent exploring the two objects was recorded and an object recognition index was calculated as the difference between the time spent exploring the novel and the familiar object, divided by the total time spent exploring the two objects.
as §4

APP/PS1 mice [4] = assay: glial (Iba1) and Aβ double-immunofluorescence, microglia around Aβ plaques; conditions: 5 mg/kg i.p. once daily for 4 weeks, compared to vehicle-treated APP/PS1 animals, FIG 4
Protocol: Animals and treatment: The experiments were carried out on male APP/PS1 mice, which express the human mutated forms APPswe and PS1dE9, and wild-type (WT) littermates which were 5 month-old at the beginning of the study. In the present work, identification of transgenic mice was carried out as follows: genomic DNA was isolated from 1-cm tail clips and genotyped by polymerase chain reaction (PCR) technique using the PCR conditions proposed by Jackson Laboratory. Animals were maintained under standard animal housing conditions in a normal 12-h dark-light cycle with free access to food and water. […]
as §2, §3

| SMILES | number of astrocytes around Aβ plaques (GFAP/Aβ) (APP/PS1 mice [1]) | Aβ burden in the cortex (APP/PS1 mice [2]; FIG 2) | recognition index (APP/PS1 mice [3]; compared to vehicle-treated animals) | memory impairment in the two-object recognition test (APP/PS1 mice [3]) | Aβ burden in the cortex (APP/PS1 mice [2]; FIG 2, 5 mg/kg/day) | number of microglial cells associated with Aβ plaques (Iba1/Aβ) (APP/PS1 mice [4]) |
| --- | --- | --- | --- | --- | --- | --- |
| CCC(C(=O)NCCCCCCCNc1c2c(nc3cc(Cl)ccc13)CCCC2)N1CCCC1=O (racemic) [(±)-(Ib), (±)-N-{7-[(6-chloro-1,2,3,4-tetrahydroacridin-9-yl)amino]heptyl}-2-(2-oxopyrrolidin-1-yl)butanamide] | produced a tendency to reduce | tends to reduce |  |  |  |  |
| CCC(C(=O)NCCCCCCCNc1c2c(nc3ccccc13)CCCC2)N1CCCC1=O (racemic) [(±)-(Ic), (±)-N-{7-[(1,2,3,4-tetrahydroacridin-9-yl)amino]heptyl}-2-(2-oxopyrrolidin-1-yl)butanamide] |  | tends to reduce | significantly increased | did not exhibit memory impairment; also recorded: reverse the memory impairment |  |  |
| CC[C@@H](C(=O)NCCCCCCCNc1c2c(nc3cc(Cl)ccc13)C[C@@H]1C=C(C)C[C@H]2C1)N1CCCC1=O [(αS,7R,11R)-(Ia), (+)-(αS,7R,11R)-N-{7-[(3-chloro-6,7,10,11-tetrahydro-9-methyl-7,11-methanocycloocta[b]quinolin-12-yl)amino]heptyl}-2-(2-oxopyrrolidin-1-yl)butanamide] | produced a tendency to reduce | tends to reduce |  |  |  |  |
| CC[C@@H](C(=O)NCCCCCCCNc1c2c(nc3cc(Cl)ccc13)C[C@H]1C=C(C)C[C@@H]2C1)N1CCCC1=O [(αS,7S,11S)-(Ia), (-)-(αS,7S,11S)-N-{7-[(3-chloro-6,7,10,11-tetrahydro-9-methyl-7,11-methanocycloocta[b]quinolin-12-yl)amino]heptyl}-2-(2-oxopyrrolidin-1-yl)butanamide] | produced a tendency to reduce |  |  | did not exhibit memory impairment; also recorded: reverse the memory impairment | tends to reduce; also recorded: reduction in the cortical Aβ plaques deposition | decreased microglial reaction |
